Measured values as given in patent EP1100507B1, “USE OF A COMBINATION COMPRISING A PRECURSOR OF URIC ACID AND ANTIOXIDANT FOR THE TREATMENT OF NEURODEGENERATIVE DESEASES” (Sacks, Meir S., priority 1998, dated 2000).

Key:
[1] = Luminol dependent chemiluminescence activated by directly injected peroxynitrite; assay type: biochemical; conditions: for inhibition of peroxynitrite-based luminol light: 1000 fold dilution; for relative antioxidant activity among the catechins tested: peroxynitrite or SIN-1 based light
Protocol: The end product of purine metabolism in humans is uric acid. This substance is an excellent antioxidant that can interact directly with nearby peroxynitrite. Figure 2 is a graph depicting interaction of peroxynitrite and uric acid and the inhibition of peroxynitrite based chemiluminescence. Figure 2 illustrates the oxidative reaction of peroxynitrite an luminol to produce light (chemiluminescence) and the interference with light which is produced by uric acid at a concentration of 10 µM. […] Allantoin is the end product of purine metabolism in animals except for man, great apes and some dalmatian dogs. […] Such an oxidant occurs most likely through peroxynitrite or possibly hypochlorite.
(§1) We studied the effect of Green tea leaf extract on peroxynitrite. This study is based on a simple chemical interaction of peroxynitrite (OONO-) and luminol which produces blue light upon oxidation. […] In addition peroxynitrite itself was used directly with a fast injection-mixing system to ascertain if there might be differences between it and the peroxynitrite generating system (SIN-1) which mimics the natural production of (OONO-). […] Upon the stimulation of inflammation and/or infection, macrophages and neutrophils can be stimulated to produce large amounts of peroxynitrite.
(§2) The antioxidant effect of green tea and some of its constituents against luminol dependent chemiluminesence activated by peroxynitrite. Since peroxynitrite oxidizes luminol to an intermediate that produces light, antioxidants will inhibit this blue light by interfering with the oxidation of the luminol. In addition, we used SIN-1 which produces both superoxide and nitric oxide which combine to produce peroxynitrite. […] The purpose of this study was to measure the antioxidant activity of green tea extract and some of its prominent polyphenols. This is accomplished by using the antioxidants to oppose the oxidation of luminol by peroxynitrite thereby inhibiting the production of blue light.
(§3) Three sydnonimine congeners are known to produce both nitric oxide and superoxide and then combine to produce peroxynitrite (ONOO). […] It was kept on ice and maintained its activity for several hours of the experiment. Peroxynitrite (approx 50 mM) was diluted 1/1000 with water. The original solution is supplied in 0.3M NaOH and this stabilizes the compound. Once diluted it must be kept on ice and used quickly, especially after dilution. When the diluted OONO- is injected into the PBS buffer at pH=7.4. […] However, the slower reaction with SIN-1 gives an opportunity to dissect the reaction into its component parts, since rapid reaction and injection/mixing are not so crucial.
(§4) The luminol was obtained from Sigma Chemical Company, St. Louis, Mo. It was dissolved first in one ml DMSO and then diluted to produce a stock solution (10^-4M) in 0.1 M Phosphate buffered saline at a pH of 7.4.
(§5) The luminometer tube was placed in a Berthold model LB9505C tube-6 channel luminometer with the temperature control set at 37°C and the light reaction was measured for 20 minutes. Peroxynitrite reacts with luminol directly and was injected using an essentially pressure-independent injection device, which injects 1/50 of it's total volume (2500 µm) of a gas tight syringe, made by the Hamilton Co. (pat. # 3161323) in Whittier, CA, to produce a blue light at 425 nm, which corresponds to the most sensitive detection range of the photomultipliers for this luminometer. The injection device was linked to a gastight 2500 microliter syringe with a fixed needle of 5.2 cm. This length of needle was necessary to penetrate the septum of the ports of the 6 channel Berthold Luminometer and to extend into the tube far enough to produce reproducible mixing necessary because of the short half-life of peroxynitrite. In Fig. 7, repetitive injections of peroxynitrite are shown giving the light generated over a one minute time period which was acquired, plotted and integrated with an IBM clone computer running KINB software. […]

[2] = Luminol dependent chemiluminescence activated by SIN-1 (peroxynitrite generator); assay type: biochemical
Excerpt: as §1, §2, §3, §4
Green tea powdered extract was purchased from Pharmanex, Simi Valley, California. 250mg was dissolved in 10ml of phosphate buffered saline (PBS) with pH of 7.4 and used as a stock solution. Dilutions were made using PBS and samples from this original stock solution were diluted every ten fold from one to a million (six samples).
A control solution was also used to provide a reference to the light stimulation produced by the combination of SIN-1 and luminol.
as §5, with “software. In the case of SIN-1, the ingredients were mixed prior to assay, with SIN-1 added fast. The assay is reported as counts per minute integrated over the 20 minute time period.” for “software.”

[3] = cited from earlier work; for uricosuric effect / uric acid levels in the blood: normal, hyperuricemic and gouty humans; for abilities to increase uric acid levels: nucleotides compared to nucleosides; for increasing blood uric acid levels: nucleotides compared with DNA and RNA
[4] = administered in large amounts (95 mg/kg); oxidized to 2,8 dihydroxyadenine; cited from earlier work
[5] = tested on: allergic encephalomyelitis (EAE); conditions: mice, 500 mg/kg four times a day, started before or after clinical symptoms of EAE; cited from earlier work
[6] = cited from earlier work
[7] = 1:1000 dilution (stock 0.45 mMolar)
[8] = 1:100 dilution from stock at 0.45 mMolar

Q: With `Oc1cc(O)c2c(c1)OC(c1ccc(O)c(O)c1)C(O)C2` (racemic) [racemic catechin, (±) catechin] as the molecule, how does the “inhibition of peroxynitrite-based light” value ([1]; 1:10,000 dilution) read?
A: 50%

Q: And the “inhibition of peroxynitrite-based light” value ([1]; 1:10,000 dilution, listed as Racemic catechin)?
A: about 50%

Q: What about the “inhibition of peroxynitrite-based light” value ([1]; 1:100,000 dilution) of the same molecule?
A: 50%

Q: And the “inhibition of peroxynitrite-based luminol light” value [1]?
A: about 50%

Q: What about the “relative antioxidant activity among the catechins tested” value [1] of the same molecule?
A: very active

Q: What about the “inhibition of SIN-1 activated luminol light” value [2, 7] of the same molecule?
A: 50%

Q: And the “inhibition of SIN-1 activated luminol light” value ([2]; 1:1000 dilution (stock 0.45 mMolar), listed as Racemic catechin)?
A: about 50%

Q: And the “inhibition of SIN-1 activated luminol light” value ([2]; 10 fold dilutions after 1:1000)?
A: little inhibition

Q: For `Nc1ncnc2c1ncn2[C@@H]1O[C@H](COP(=O)(O)O)[C@@H](O)[C@H]1O` [AMP], which “uricosuric effect / uric acid levels in the blood” value [3] is on record?
A: raised uric acid levels in the blood

Q: And the “abilities to increase uric acid levels” value [3]?
A: equivalent

Q: And the “increasing blood uric acid levels” value [3]?
A: more effective than DNA and RNA

Q: Which results are given for `Nc1nc2c(ncn2[C@@H]2O[C@H](COP(=O)(O)O)[C@@H](O)[C@H]2O)c(=O)[nH]1` [GMP]?
A: uricosuric effect / uric acid levels in the blood [3]: raised uric acid levels in the blood; abilities to increase uric acid levels [3]: equivalent; increasing blood uric acid levels [3]: more effective than DNA and RNA

Q: For `Nc1ncnc2nc[nH]c12` [adenine], which “uricosuric effect / uric acid levels in the blood” value [3] is on record?
A: raised uric acid levels in the blood

Q: What about the toxicity [4] of the same molecule?
A: can crystallize to form kidney stones

Q: With `Nc1nc2nc[nH]c2c(=O)[nH]1` [guanine] as the molecule, how does the “uricosuric effect / uric acid levels in the blood” value [3] read?
A: ineffective

Q: With `Nc1nc2c(ncn2[C@@H]2O[C@H](CO)[C@@H](O)[C@H]2O)c(=O)[nH]1` [guanosine] as the molecule, how does the “abilities to increase uric acid levels” value [3] read?
A: equivalent

Q: What does the source list for `O=c1[nH]cnc2nc[nH]c12` [hypoxanthine]?
A: uricosuric effect / uric acid levels in the blood [3]: raised uric acid levels in the blood; effectiveness as precursor of uric acid ([3]; overall, of AMP, GMP and hypoxanthine): most effective precursor of uric acid

Q: For `OC[C@H]1O[C@@H](n2cnc3c(O)ncnc32)[C@H](O)[C@@H]1O` [inosine], which “abilities to increase uric acid levels” value [3] is on record?
A: equivalent

Q: Which results are given for `O=c1[nH]c(=O)c2[nH]c(=O)[nH]c2[nH]1` [uric acid]?
A: inhibition of the oxidative reaction of peroxynitrite and luminol (chemiluminescence) ([1]; uric acid 10 µM, peroxynitrite 10 µM): about 99%; survival [5]: long time survival; solubility in water [6]: highly insoluble in water

Q: Which “uricosuric effect / uric acid levels in the blood” value [3] does the source give for `O=c1[nH]c(=O)c2[nH]cnc2[nH]1` [xanthine] here?
A: ineffective

Q: Which “inhibition of light, peroxynitrite as activator of luminol light” value ([1]; 1:10 dilution) does the source give for (-) epicatechin gallate here?
A: 100%

Q: What about the “inhibition of peroxynitrite-based luminol light” value [1] of the same molecule?
A: about 50%

Q: And the “inhibition of light production, peroxynitrite as activator of luminol light” value ([1]; consecutive 10 fold dilution after 1:10)?
A: about 25%

Q: What about the “relative antioxidant activity among the catechins tested” value [1] of the same molecule?
A: second most active antioxidant

Q: What about the “inhibition of SIN-1 activated luminol light” value [2, 7] of the same molecule?
A: about 50%

Q: What about the “inhibition of SIN-1 activated luminol light” value ([2]; 1:1000 dilution (stock 0.45 mMolar), listed as epicatechin gallate (-)) of the same molecule?
A: 60%

Q: For (-) epigallocatechin gallate, which “effect on light from peroxynitrite” value [1, 8] is on record?
A: stimulation of light

Q: What about the “pattern with peroxynitrite based light compared with SIN-1 activated light” value ([1]; full strength and 10 fold dilutions) of the same molecule?
A: same pattern of behavior

Q: And the “relative antioxidant activity among the catechins tested” value [1]?
A: weakest antioxidant tested

Q: And the “inhibition of SIN-1 activated luminol light” value ([2]; 1:10 dilution)?
A: 100%

Q: And the “effect on light from SIN-1” value [2, 8]?
A: stimulation of light

Q: What about the “inhibition of SIN-1 activated luminol light” value ([2]; full strength) of the same molecule?
A: 100%

Q: What about the “effect on SIN-1 activated luminol light” value ([2]; further dilution beyond 1:10) of the same molecule?
A: stimulate production of light
